Experimental data as given in patent US7427637B2, “Mitotic kinesin inhibitors” (Merck & Co. Inc., priority 2003, dated 2008).

Molecular target: T1, human KSP motor domain (KSP(367H)) (Homo sapiens, UniProt P52732)
T1 construct: were used to amplify the motor domain and the neck linker region; made in house; host or cells: E. coli BL21 (DE3), pRSETa
T1 sequence (P52732 18-359 limits assumed): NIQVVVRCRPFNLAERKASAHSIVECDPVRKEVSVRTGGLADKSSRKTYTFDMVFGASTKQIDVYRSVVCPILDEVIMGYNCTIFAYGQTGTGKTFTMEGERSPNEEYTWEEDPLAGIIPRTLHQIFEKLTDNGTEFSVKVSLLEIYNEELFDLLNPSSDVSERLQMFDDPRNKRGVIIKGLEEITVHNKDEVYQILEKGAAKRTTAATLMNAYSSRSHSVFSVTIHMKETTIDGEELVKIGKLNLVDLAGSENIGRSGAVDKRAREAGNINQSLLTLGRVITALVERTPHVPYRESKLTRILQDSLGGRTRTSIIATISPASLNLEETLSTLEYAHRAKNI
Test: Kinesin ATPase in vitro assay
Assay type: biochemical
Conditions: kinesin motor domain with microtubules, 1 mM ATP, 23° C.; free phosphate by quinaldine red/ammonium molybdate, absorbance 540 nm
From the text: I. Kinesin ATPase In Vitro Assay
Cloning and Expression of Human Poly-histidine Tagged KSP Motor Domain_(KSP(367H))
Plasmids for the expression of the human KSP motor domain construct were cloned by PCR using a pBluescript full length human KSP construct (Blangy et al., Cell, vol. 83, pp 1159-1169, 1995) as a template. The N-terminal primer 5′-[…] (SEQ. ID. NO.: 1) and the C-terminal primer 5′-[…] […] (SEQ. ID. NO.: 2) were used to amplify the motor domain and the neck linker region. The PCR products were digested with AseI and XhoI, ligated into the NdeI/XhoI digestion product of pRSETa (Invitrogen) and transformed into E. coli BL21 (DE3).
Cells were grown at 37° C. to an OD600 of 0.5. After cooling the culture to room temperature expression of KSP was induced with 100 μM IPTG and incubation was continued overnight. Cells were pelleted by centrifugation and washed once with ice-cold PBS. Pellets were flash-frozen and stored −80° C.
Cell pellets were thawed on ice and resuspended in lysis buffer (50 mM K-HEPES, pH 8.0, 250 mM KCl, 0.1% Tween, 10 mM imidazole, 0.5 mM Mg-ATP, 1 mM PMSF, 2 mM benzimidine, 1× complete protease inhibitor cocktail (Roche)). Cell suspensions were incubated with 1 mg/ml lysozyme and 5 mM β-mercaptoethanol on ice for 10 minutes, followed by sonication (3×30 sec). All subsequent procedures were performed at 4° C. Lysates were centrifuged at 40,000×g for 40 minutes. Supernatants were diluted and loaded onto an SP Sepharose column (Pharmacia, 5 ml cartridge) in buffer A (50 mM K-HEPES, pH 6.8, 1 mM MgCl2, 1 mM EGTA, 10 μM Mg-ATP, 1 mM DTT) and eluted with a 0 to 750 mM KCl gradient in buffer A. Fractions containing KSP were pooled and incubated with Ni-NTA resin (Qiagen) for one hour. The resin was washed three times with buffer B (Lysis buffer minus PMSF and protease inhibitor cocktail), followed by three 15-minute incubations and washes with buffer B. Finally, the resin was incubated and washed for 15 minutes three times with buffer C (same as buffer B except for pH 6.0) and poured into a column. KSP was eluted with elution buffer (identical to buffer B except for 150 mM KCl and 250 mM imidazole). KSP-containing fractions were pooled, made 10% in sucrose, and stored at −80° C.
Microtubules are prepared from tubulin isolated from bovine brain. Purified tubulin (>97% MAP-free) at 1 mg/ml is polymerized at 37° C. in the presence of 10 μM paclitaxel, 1 mM DTT, 1 mM GTP in BRB80 buffer (80 mM K-PIPES, 1 mM EGTA, 1 mM MgCl2 at pH 6.8). The resulting microtubules are separated from non-polymerized tubulin by ultracentrifugation and removal of the supernatant. The pellet, containing the microtubules, is gently resuspended in 10 μM paclitaxel, 1 mM DTT, 50 μg/ml ampicillin, and 5 μg/ml chloramphenicol in BRB80.
The kinesin motor domain is incubated with microtubules, 1 mM ATP (1:1 MgCl2: Na-ATP), and compound at 23° C. in buffer containing 80 mM K-HEPES (pH 7.0), 1 mM EGTA, 1 mM DTT, 1 mM MgCl2, and 50 mM KCl. The reaction is terminated by a 2-10 fold dilution with a final buffer composition of 80 mM HEPES and 50 mM EDTA (or, alternately, with a 1:1 addition of reaction volume to stop buffer (1.8M KCl and 50 mM EDTA)). Free phosphate from the ATP hydrolysis reaction is measured via a quinaldine red/ammonium molybdate assay by adding a 1.5 times volume of quench C (e.g., to a mixture of 40 μl reaction volume+40 μl stop buffer is then added 120 μl quench C). Quench A contains 0.1 mg/ml quinaldine red and 0.14% polyvinyl alcohol; quench B contains 12.3 mM ammonium molybdate tetrahydrate in 1.15 M sulfuric acid. Quench C is a 2:1 ratio of quench A:quench B The reaction is incubated for 5-10 minutes at 23° C., and the absorbance of the phospho-molybdate complex is measured at 540 nm.

| Compound | IC50 [µM] |
| --- | --- |
| CCN(CC)CCN1C[C@H]2C(c3cc(F)ccc3F)=C[C@@H](c3ccccc3)N2C1=O (racemic) [Compound 2A-1d, (±)-(5S,7aR)-7-(2,5-Difluorophenyl)-2-[2-(diethylamino)ethyl]-5-phenyl-1,2,5,7a-tetrahydro-3H-pyrrolo[1,2-c]imidazol-3-one] | ≤ 50 |
| O=C1CN2[C@@H](CN1)C(c1cc(F)ccc1F)=C[C@H]2c1ccccc1 (racemic) [Compound 5-1, (±)-(6S,8aR and 6R,8aS)-8-(2,5-Difluorophenyl)-6-phenyl-1,2,6,8a-tetrahydropyrrolo[1,2-a]pyrazin-3(4H)-one] | ≤ 50 |
| CCN1C[C@H]2C(c3cc(F)ccc3F)=C[C@@H](c3ccccc3)N2C1=O (racemic) [Compound 2A-1b, (±)-(5S,7aR)-7-(2,5-Difluorophenyl)-2-ethyl-5-phenyl-1,2,5,7a-tetrahydro-3H-pyrrolo[1,2-c]imidazol-3-one] | ≤ 50 |
| CN1CC(=O)N2[C@@H](C1)C(c1cc(F)ccc1F)=C[C@H]2c1ccccc1 (racemic) [Compound 4-1, (±)-(6S,8aR and 6R,8aS)-8-(2,5-Difluorophenyl)-2-methyl-6-phenyl-2,3,6,8a-tetrahydropyrrolo[1,2-a]pyrazin-4(1H)-one] | ≤ 50 |
| O=C1CNCC2C(c3cc(F)ccc3F)=CC(c3ccccc3)N12 (racemic) [Compound 3-2b, (±)-(2S,5S and 2R,5R)-7-(2,5-Difluorophenyl)-5-phenyl-1,2,5,7a-tetrahydro-3H-pyrrolo[1,2-a]pyrazin-4(1H)-one] | ≤ 50 |
| O=C1CNC[C@H]2C(c3cc(F)ccc3F)=C[C@@H](c3ccccc3)N12 (racemic) [Compound 3-2a, (±)-(2S,5R and 2R,5S)-7-(2,5-Difluorophenyl)-5-phenyl-1,2,5,7a-tetrahydro-3H-pyrrolo[1,2-a]pyrazin-4(1H)-one] | ≤ 50 |

Continued, values first:

| IC50 [µM] | Compound |
| --- | --- |
| ≤ 50 | O=C1OCC2C(c3cc(F)ccc3F)=CC(c3ccccc3)N12 (racemic) [Compound 1-9a, (±)-(5S,7aR and 5R,7aS)-7-(2,5-Difluorophenyl)-5-phenyl-2,7a-dihydro-1H-pyrrole[1,2-c][1,3]oxazol-3-one] |
| ≤ 50 | O=C1NCC2C(c3cc(F)ccc3F)=CC(c3ccccc3)N12 (racemic) [Compound 2-4a, (±)-7-(2,5-Difluorophenyl)-5-phenyl-1,2,5,7a-tetrahydro-3H-pyrrolo[1,2-c]imidazol-3-one] |
| ≤ 50 | CN1C[C@H]2C(c3cc(F)ccc3F)=C[C@@H](c3ccccc3)N2C1=O (racemic) [Compound 2A-1a, (±)-(5S,7aR)-7-(2,5-Difluorophenyl)-2-methyl-5-phenyl-1,2,5,7a-tetrahydro-3H-pyrrolo[1,2-c]imidazol-3-one] |
| ≤ 50 | CN(C)CCN1C[C@H]2C(c3cc(F)ccc3F)=C[C@@H](c3ccccc3)N2C1=O (racemic) [Compound 2A-1c, (±)-(5S,7aR)-7-(2,5-Difluorophenyl)-2-[2-(dimethylamino)ethyl]-5-phenyl-1,2,5,7a-tetrahydro-3H-pyrrolo[1,2-c]imidazol-3-one] |
